According to publication doi:10.1101/2025.04.10.648262, “Time-resolved phenotyping at subcellular resolution reveals shared principles and key trade-offs across antimicrobial peptide activities” (bioRxiv, 2026):
Where two headings read alike, the source gives them in different places. Bridge positions count the residues as written; N and C are the ends. Ends that are not written are not given here.

Assays:
Type in all cases: cell-based, Escherichia coli
E. coli ATCC 25922 = system: E. coli ATCC 25922
Experimental: Strain ATCC 25922GFP (ATCC, Virginia, USA), which carries a GFP-expressing plasmid, was selected for biofilm experiments. The strain’s ability to form biofilms was first verified at 37°C using Congo Red staining on agar plate containing M9gluCAAT. Congo Red dye binds curli, a major component of the biofilm extracellular matrix. Strain ATCC 25922 (lacking the GFP-expressing plasmid) was used for MIC determination (to avoid interference from the presence of ampicillin required to maintain the plasmid) following the standard growth protocol described above.
(§1) To determine the minimal inhibitory concentration (MIC) of the selected AMPs against either MG1655 or ATCC 25922 E. coli strains, exponentially growing cells were diluted in fresh medium to an OD = 10^−6 (~500 cells/mL) and mixed 50:50 with titrated AMP concentrations (which were chosen to be over a range that included the MIC) in a 96-well plate (flat bottom with low evaporation lid, 3595, Corning, Arizona, USA). A final OD of 5 × 10^−7 corresponds to ~250 cells/mL. OD curves were sampled every 5 min for a total of 48 h using a microplate reader (BioTek Synergy 2, Agilent Technologies Inc., California, USA). Raw data were exported as a text file and analysed using a custom-written Python script (microplate_reader_analysis.py). To measure maximum growth rates, the log(OD) was fitted using a linear regression over a 12-point moving window (60 min), which provides the instantaneous growth rate (log(OD)/h), from which the global maximum was computed. The MIC was defined as the minimum AMP concentration for which the maximum growth rate was < 0.2 log(OD)/h within the first 20 h of incubation. Each MIC experiment was performed independently at least three times (with at least two technical replicates each), and the mode across all replicates was taken as the final MIC; in the rare cases of a tie, an additional replicate was performed, which was sufficient to resolve it.

E. coli (MG1655) = conditions: MG1655, 20 h
Experimental: For all experiments and E. coli strains, cells were grown in a medium (M9gluCAAT) with M9 salts (33.7 mM Na2HPO4, 22mM KH2PO4, 8.55 mM NaCl, 9.35 mM NH4Cl), 0.2% (w/v) glucose, 0.4% (w/v) casamino acids, 1 mM MgSO4, 0.3 mM CaCl2, 1 μg/mL thiamine, and trace elements (13.4 mM ethylene-diamine-tetra-acetic-acid (EDTA), 3.1 mM FeCl3-6H2O, 0.62 mM ZnCl2, 76 μM CuCl2-2H2O, 42 μM CoCl2-2H2O, 162 μM H3BO3, 8.1 μM MnCl2-4H2O). Prior to every experiment, cells were first inoculated into M9gluCAAT and grown to stationary phase at 37°C. For all assays except the biofilm experiments, the culture was diluted to 1/10,000 or more in fresh medium and grown at 37°C until it reached an optical density at 600 nm (OD) of 0.2–0.4. For the biofilm experiments, cells were grown in M9gluCAAT supplemented with 100 μg/mL ampicillin to maintain the GFP-expressing plasmid. The overnight stationary-phase cultures were then diluted into the same medium to an OD of 0.015. See below for details on biofilm growth.
Except for the biofilm experiments, the strains used in this study were derived from MG1655 (ATCC 47076), which was used to estimate the minimum inhibitory concentration (MIC) for all the studied peptides (or peptoids) using a microplate reader (Figure 1A). To detect the timing of outer and inner membrane permeabilization to proteins, strain CJW7845 was constructed to carry two freely diffusing fluorescent proteins: mScarlet-I in the periplasm and mTagBFP2 in the cytoplasm. Construction of CJW7845 was done by transforming pBAD-mTagBFP2 plasmid (Addgene #34632, a gift from Vladislav Verkhusha; ([Subach et al., 2011])) into an E. coli strain expressing a periplasmic mScarlet-I reporter ([Cañas-Duarte 2021]), as previously described ([Chung et al., 1989]). Transformants were restreaked on fresh selection plates and confirmed via microscopy.
as §1

E. coli strain (CJW7845) = test: Time-lapse single-cell phenotyping of inner/outer membrane permeabilization to proteins and growth arrest in microwells; design: key to Class (timing of growth arrest relative to IM permeabilization to proteins): Class I AMPs and PMs cause growth arrest predominantly associated with inner membrane (IM) permeabilization; class II compounds inhibit growth without substantial IM permeabilization; conditions: for OM-permeabilized cells among IM-permeabilized cells: CJW7845, during the experiment
Experimental: For experiments with PDMS microwells, cells were allowed to grow for ~30 min in the temperature-controlled enclosure prior to imaging. A 10X concentrated AMP solution was spiked in (at 1/10 the volume of the well) and mixed well by pipetting after ~20 min from the start of the image acquisition, without interrupting the timelapse sequence. When the uptake of SYTOX Green was monitored, SYTOX Green was included in the AMP solution and spiked in during the experiment to obtain a final concentration of SYTOX Green of 50 nM in the well. This allowed us to monitor healthy cell growth prior to AMP treatment, to rapidly set the desired AMP (or SYTOX Green) concentration from one frame to the next (unlike for flow-controlled injection systems), and to resolve the AMP-induced phenotype in real time. The current design allows for testing up to four independent conditions in parallel.
To analyse the single-cell experiments in microwells, OmniSegger software (https://github.com/tlo-bot/omnisegger), which combines SuperSegger MATLAB-based suite ([Stylianidou et al., 2016]) for cell analysis with Omnipose segmentation ([Cutler et al., 2022]), was used to first process the microscopy images by performing drift correction, cell segmentation, and cell linking. Given that AMP-treated cells can display extreme phenotypes, such as exceedingly bright and/or heterogeneous phase contrast signal (likely a result of the widely changing intracellular density upon AMP treatment) and that the software’s pre-trained model bact_phase_omni ([Cutler et al, 2022]) tended to split cells before cell division was completed, a new Omnipose model was trained from scratch starting from bact_phase_omni-generated masks that were further corrected and curated using custom-made Python scripts (screening_good_bad.py and generate_training_dataset.py). Details on the Omnipose model retraining can be found in a previous publication ([Thappeta et al., 2025]). The final model (omnipose_phase_microwells_model) and corresponding training datasets are available at https://github.com/JacobsWagnerLab/published/tree/master/Fragasso_et_al_2025 and BioImage Archive (accession number: S-BIAD1823), respectively.
MATLAB files of the linked cell trajectories output from OmniSegger were then imported, background subtracted using background_subtraction.py, which was adapted from a previous study ([Papagiannakis et al., 2025]), and converted to Python data structures (import_processing_code.py), from which cell features such as cell area, nucleoid area, mean fluorescence intensity, etc., were extracted for each cell at each frame. The exported dataframes were further processed to estimate instantaneous growth rates and were run through a series of functions to perform curation based on cell areas and instantaneous growth rates over time (post_processing_curation_functions.py). […] Represented data points were pooled from multiple replicates.
Analysis of strain CJW7845 proceeded by extracting the timings of permeabilization of the outer and inner membranes based on the mean fluorescence intensities of mScarlet-I and/or mTagBFP2 fluorescent proteins (using function get_permeabilization_time.py), cell growth arrest, and the initiation time of growth inhibition. To obtain accurate timings underlying membrane permeabilization events, information from both the signal intensity itself as well as its derivative were combined, which enabled us to accurately resolve the relevant changes in fluorescent protein signal beyond the intrinsic high-frequency noise and low-frequency photobleaching. Inner membrane permeabilization to proteins can result in two possible phenotypes when simultaneously monitoring freely diffusing periplasmic and cytoplasmic probes, depending on which membrane (outer or inner) becomes permeabilized first. When the outer membrane is first permeabilized, mScarlet-I signal is lost first, followed by mTagBFP2 when the inner membrane becomes also permeabilized. […]

[1] = 2X MIC, CJW7845, M9gluCAAT, 37°C, time-lapse microscopy

MIC (mode MIC) (E. coli (MG1655)) [µM]	MIC (mode MIC) (E. coli ATCC 25922; ATCC 25922, 20 h) [µM]	Molecule	other results
2	1	RRRPRPPYLPRPRPPPFFPPRLPPRIPPGFPPRFPPRFP-NH2 [PR-39]	–
0.5	0.5	KWKLFKKIEKVGQNIRDGIIKAGPAVAVVGQATQIAK-NH2 [CecA, cecropin A]	–
1	1	RRIRFRPPYLPRPGRRPRFPPPFPIPRIPRIP [Tur1A]	–
0.6	0.6	RRIRPRPPRLPRPRPRPLPFPRPGPRPIPRPLPFP [Bac7, bactenecin-7]	–

The next lines start with the molecule.

Molecule	MIC (mode MIC) (E. coli (MG1655)) [µM]	MIC (mode MIC) (E. coli ATCC 25922; ATCC 25922, 20 h) [µM]	other results
CC[C@H](C)[C@H](N)C(=O)N[C@@H](CC(C)C)C(=O)N1CCC[C@H]1C(=O)N[C@@H](Cc1c[nH]c2ccccc12)C(=O)N[C@@H](CCCCN)C(=O)N[C@@H](Cc1c[nH]c2ccccc12)C(=O)N1CCC[C@H]1C(=O)N[C@@H](Cc1c[nH]c2ccccc12)C(=O)N[C@@H](Cc1c[nH]c2ccccc12)C(=O)N1CCC[C@H]1C(=O)N[C@@H](Cc1c[nH]c2ccccc12)C(=O)N[C@@H](CCCNC(=N)N)C(=O)N[C@@H](CCCNC(=N)N)C(N)=O [Indo, indolicidin]	12.5	–	MIC (mode MIC) (E. coli ATCC 25922; E. coli ATCC 25922, M9gluCAAT, 37°C, 20 h, mode across four biological replicates): 6.2 µM
CC(C)C[C@H](NC(=O)[C@H](CCCNC(=N)N)NC(=O)CNC(=O)CNC(=O)[C@@H](N)CCCNC(=N)N)C(=O)N[C@H]1CSSC[C@@H](C(=O)N[C@H](C(=O)NCC(=O)N[C@@H](CCCNC(=N)N)C(N)=O)C(C)C)NC(=O)[C@H](C(C)C)NC(=O)[C@@H]2CSSC[C@H](NC(=O)[C@H](Cc3ccc(O)cc3)NC1=O)C(=O)N[C@@H](CCCNC(=N)N)C(=O)N[C@@H](CCCNC(=N)N)C(=O)N[C@@H](CCCNC(=N)N)C(=O)N[C@@H](Cc1ccccc1)C(=O)N2 [PG-1, protegrin-1]	–	–	Class (timing of growth arrest relative to IM permeabilization to proteins) (E. coli strain (CJW7845); [1]): I; OM-permeabilized cells among IM-permeabilized cells (E. coli strain (CJW7845); 2X MIC): 163/163; OM-permeabilized cells (out of all IM-permeabilized cells) (E. coli strain (CJW7845); 10X MIC, CJW7845): 48/59
GIINTLQKYYCRVRGGRCAVLSCLPKEEQIGKCSTRGRKCCRRKK (disulfide 11-40, 18-33, 23-41 (inferred)) [HBD-3, human β-defensin 3]	20	–	Class (timing of growth arrest relative to IM permeabilization to proteins) (E. coli strain (CJW7845); [1]): I; Type (relative timing of OM and IM permeabilization) (E. coli strain (CJW7845); [1]): B (type B AMPs and PMs permeabilize the IM well before (>10 min) the OM); OM-permeabilized cells among IM-permeabilized cells (E. coli strain (CJW7845); 2X MIC): 7/82
